Results reported in ChEMBL document CHEMBL1155771, “Emergence of KPC-2 and KPC-3 in carbapenem-resistant Klebsiella pneumoniae strains in an Israeli hospital” (2007).
Values after ≈ are worked out from the molar mass of the structure shown.

Key:
Klebsiella pneumoniae [1] = test: Antibacterial activity against carbapenem-resistant Klebsiella pneumoniae 490 isolate producing KPC3 and TEM1 carbapenemases; type: functional
Klebsiella pneumoniae [2] = test: Antibacterial activity against carbapenem-resistant Klebsiella pneumoniae 469 isolate producing KPC2, OXA4 and CTX-M-10 carbapenemases; type: functional
Escherichia coli [3] = test: Antibacterial activity against carbapenem-resistant blaKPC-encoding plasmid harboring Escherichia coli GeneHogs transformant of Klebsiella pneumoniae 490 producing KPC3 and TEM1 carbapenemases
Escherichia coli [4] = test: Antibacterial activity against sEscherichia coli GeneHogs recipient strain without blaKPC-encoding plasmid
Escherichia coli [5] = test: Antibacterial activity against carbapenem-resistant blaKPC-encoding plasmid harboring Escherichia coli GeneHogs transformants of Klebsiella pneumoniae 469 producing KPC2, OXA4 and CTX-M-10 carbapenemases

C[C@@H](O)[C@H]1C(=O)N2C(C(=O)O)=C(S[C@@H]3CN[C@H](C(=O)Nc4cccc(C(=O)O)c4)C3)[C@H](C)[C@H]12 showed an MIC (Klebsiella pneumoniae [1]) of 64 µg/mL (≈ 135 µM), an MIC (Klebsiella pneumoniae [2]) of 16 µg/mL (≈ 33.6 µM) and an MIC (Escherichia coli [3]) of 2 µg/mL (≈ 4.21 µM). The MIC (Escherichia coli [4]) was under 0.25 µg/mL and the MIC (Escherichia coli [5]) was 4 µg/mL (≈ 8.41 µM).
For CO/N=C(\C(=O)N[C@@H]1C(=O)N2C(C(=O)O)=C(CSc3nc(=O)c(O)nn3C)CS[C@H]12)c1csc(N)n1 [CEFTRIAXONE], the MIC (Klebsiella pneumoniae [1]) was over 64 µg/mL, the MIC (Klebsiella pneumoniae [2]) was over 64 µg/mL and the MIC (Escherichia coli [3]) was 8 µg/mL (≈ 14.4 µM). It also gave an MIC (Escherichia coli [4]) of under 1 µg/mL and an MIC (Escherichia coli [5]) of over 64 µg/mL.
In the case of NCC[C@H](O)C(=O)N[C@@H]1C[C@H](N)[C@@H](O[C@H]2O[C@H](CN)[C@@H](O)[C@H](O)[C@H]2O)[C@H](O)[C@H]1O[C@H]1O[C@H](CO)[C@@H](O)[C@H](N)[C@H]1O [AMIKACIN], the MIC (Klebsiella pneumoniae [1]) was over 64 µg/mL, the MIC (Klebsiella pneumoniae [2]) was 4 µg/mL (≈ 6.83 µM) and the MIC (Escherichia coli [3]) was under 2 µg/mL. The MIC (Escherichia coli [4]) was under 2 µg/mL and the MIC (Escherichia coli [5]) was 16 µg/mL (≈ 27.3 µM).
For O=C(O)c1cn(C2CC2)c2cc(N3CCNCC3)c(F)cc2c1=O [CIPROFLOXACIN], the MIC (Escherichia coli [4]) was under 0.25 µg/mL.
CN(C)c1cc(NC(=O)CNC(C)(C)C)c(O)c2c1C[C@H]1C[C@H]3[C@H](N(C)C)C(O)=C(C(N)=O)C(=O)[C@@]3(O)C(O)=C1C2=O [TIGECYCLINE] gave an MIC (Klebsiella pneumoniae [1]) of 2 µg/mL (≈ 3.41 µM), an MIC (Klebsiella pneumoniae [2]) of 2 µg/mL (≈ 3.41 µM) and an MIC (Escherichia coli [3]) of 0.5 µg/mL (≈ 0.854 µM). For the same compound, the MIC (Escherichia coli [4]) was 0.016 µg/mL (≈ 0.0273 µM) and the MIC (Escherichia coli [5]) was 0.5 µg/mL (≈ 0.854 µM).
For CCN1CCN(C(=O)N[C@@H](C(=O)N[C@@H]2C(=O)N3[C@@H]2SC(C)(C)[C@@H]3C(=O)O)c2ccccc2)C(=O)C1=O [PIPERACILLIN], the MIC (Klebsiella pneumoniae [1]) was over 128 µg/mL, the MIC (Klebsiella pneumoniae [2]) was over 128 µg/mL and the MIC (Escherichia coli [3]) was over 128 µg/mL. For the same compound, the MIC (Escherichia coli [4]) was under 4 µg/mL and the MIC (Escherichia coli [5]) was over 128 µg/mL.
Work on CO/N=C(\C(=O)N[C@@H]1C(=O)N2C(C(=O)[O-])=C(C[N+]3(C)CCCC3)CS[C@H]12)c1csc(N)n1 yielded an MIC (Klebsiella pneumoniae [1]) of over 64 µg/mL, an MIC (Klebsiella pneumoniae [2]) of over 64 µg/mL and an MIC (Escherichia coli [4]) of under 1 µg/mL.
In the case of COLISTIN, the MIC (Klebsiella pneumoniae [1]) was 0.25 µg/mL and the MIC (Klebsiella pneumoniae [2]) was 0.25 µg/mL.
C[C@H]1[C@H](NC(=O)/C(=N\OC(C)(C)C(=O)O)c2csc(N)n2)C(=O)N1S(=O)(=O)O [AZTREONAM] was tested, and the MIC (Escherichia coli [4]) was under 1 µg/mL and the MIC (Escherichia coli [5]) was 32 µg/mL (≈ 73.5 µM).
With C[C@@H](O)[C@H]1C(=O)N2C(C(=O)O)=C(S[C@@H]3CN[C@H](C(=O)N(C)C)C3)[C@H](C)[C@H]12 [MEROPENEM] the MIC (Klebsiella pneumoniae [1]) was 32 µg/mL (≈ 83.4 µM), the MIC (Klebsiella pneumoniae [2]) was 8 µg/mL (≈ 20.9 µM) and the MIC (Escherichia coli [3]) was 2 µg/mL (≈ 5.22 µM). The MIC (Escherichia coli [4]) was under 0.25 µg/mL and the MIC (Escherichia coli [5]) was 4 µg/mL (≈ 10.4 µM).
For CC(C)(O/N=C(\C(=O)N[C@@H]1C(=O)N2C(C(=O)[O-])=C(C[n+]3ccccc3)CS[C@H]12)c1csc(N)n1)C(=O)O [CEFTAZIDIME], the MIC (Klebsiella pneumoniae [1]) was over 64 µg/mL, the MIC (Klebsiella pneumoniae [2]) was over 64 µg/mL and the MIC (Escherichia coli [3]) was 16 µg/mL (≈ 29.3 µM). It also gave an MIC (Escherichia coli [4]) of under 1 µg/mL and an MIC (Escherichia coli [5]) of over 64 µg/mL.
For C[C@@H](O)[C@H]1C(=O)N2C(C(=O)O)=C(SCCNC=N)C[C@H]12 [IMIPENEM ANHYDROUS], the MIC (Klebsiella pneumoniae [1]) was 32 µg/mL (≈ 107 µM), the MIC (Klebsiella pneumoniae [2]) was 16 µg/mL (≈ 53.4 µM) and the MIC (Escherichia coli [3]) was 4 µg/mL (≈ 13.4 µM). The MIC (Escherichia coli [4]) was under 0.25 µg/mL and the MIC (Escherichia coli [5]) was 4 µg/mL (≈ 13.4 µM).
